# Results from patent US20200068891A1, “Synergetic Biocidal Compositions Comprising 5-Chlorine-2-Methylisothiazolin-3-One” (priority 2017, published 2020).
# Columns and labels:
# [1] = test system: Yarrowia lipolytica (DSM 32369); assay: Synergy test: minimum inhibitory concentrations in microtiter plates, Yarrowia lipolytica in Sabouraud Maltose broth; settings: 48 hours at 25° C.; for Synergy index Qa/QA + Qb/QB: below 1 = synergism; for Qa (CMIT) / Qa (CMIT): concentration of CMIT indicating an end point: as sole agent (QA) where Qb is 0
# Protocol: The test organisms used were the Gram-negative bacterium Pseudomonas putida (DSM 25068) and the yeast fungus Yarrowia lipolytica (DSM 32369). For this, mixtures with different concentrations of the particular active substances were prepared and tested in regard to their effect on Pseudomonas putida and Yarrowia lipolytica. The testing was done in Milller-Hinton broth MHB (in the case of Pseudomonas) or Sabouraud Maltose broth SMB (in the case of Yarrowia) with a cell density of 10^6 germs per ml.
# The incubation time of the microtiter plates was 48 hours at 30° C. (Pseudomonas) or 25° C. (Yarrowia). After 48 hours the batches were evaluated for turbidity due to growth and, in addition, the optical density was determined by photometry. In this way, the minimum inhibitory concentrations (MHK) were determined for the two active substances individually and in combination.
# The resulting synergism was represented numerically by calculating the synergy index (SI). […] There, the SI is calculated by the following formula: synergy index SI =Qa/QA +Qb/QB
# Qa =concentration of component A in the mixture A+B
# Qb =concentration of component B in the mixture A+B
# If the synergy index has a value over 1, this means that an antagonism is present. If the synergy index takes on the value 1, this means that an addition of the effect of the two biocides/compounds is present. If the synergy index takes on a value below 1, this means that a synergism exists for the two biocides. If the synergy index has a value of more than 1, this means that an antagonism exists.
# [2] = test system: Pseudomonas putida (DSM 25068); assay: Synergy test: minimum inhibitory concentrations in microtiter plates, Pseudomonas putida in Mueller-Hinton broth; format: cell-based; settings: 48 hours at 30° C.; for Synergy index Qa/QA + Qb/QB: below 1 = synergism; for Qa (CMIT): concentration of CMIT indicating an end point / Qa (CIT): concentration of CMIT indicating an end point: as sole agent (QA) where Qb is 0
# Protocol: (Pseudomonas) or 25° C. (Yarrowia).
# Kull et al., Applied Microbiology, Vol. 9 (1961), p. 538.
# QA =concentration of component A as sole biocide
# QB =concentration of component B as sole biocide
# [3] = in the mixture with CMIT, as sole agent (QB) where Qa is 0
compound,measurement,setting,value
CC(=O)C1C(=O)C=C(C)OC1=O (centres unmarked) [dehydracetic acid],Synergy index Qa/QA + Qb/QB,[1]; CMIT and dehydracetic acid,1.00
same,Qb (dehydracetic acid): concentration of dehydracetic acid indicating an end point,[1]; [3],200 ppm
"CCCCn1sc2ccccc2c1=O [BBIT, N-butyl-benzisothiazolinone]",Synergy index Qa/QA + Qb/QB,[2]; CMIT and BBIT,1.00
same,Qb (BBIT): concentration of BBIT indicating an end point,[2]; [3],20 ppm
same,Synergy index Qa/QA + Qb/QB,[1]; CMIT and BBIT,1.00
same,Qb (BBIT): concentration of BBIT indicating an end point,[1]; [3],3.00 ppm
"CCCCCCCCCC[N+](C)(C)CCCCCCCCCC.[Cl-] [DDAC, didecyldimethylammonium chloride]",Synergy index Qa/QA + Qb/QB,[2]; CMIT and DDAC,1.00
same,Qb (DDAC): concentration of DDAC indicating an end point,[2]; [3],7.5 ppm
"CC(O)(P(=O)(O)O)P(=O)(O)O [HEDP, (1-hydroxyethylidene)bis-phosphonic acid]",Synergy index Qa/QA + Qb/QB,[2]; CMIT and HEDP,1.00
same,Qb (HEDP): concentration of HEDP indicating an end point,[2]; [3],250 ppm
"C=O [HCHO, formaldehyde]",Synergy index Qa/QA + Qb/QB,[2]; CMIT and HCHO,1.00
same,Qb (HCHO): concentration of HCHO indicating an end point,[2]; [3],500 ppm
COC(=O)c1ccc(O)cc1 [methylparaben],Synergy index Qa/QA + Qb/QB,[2]; CMIT and methylparaben,1.00
same,Qb (methylparaben): concentration of methylparaben indicating an end point,[2]; [3],2000 ppm
CCOC(=O)c1ccc(O)cc1 [ethylparaben],Synergy index Qa/QA + Qb/QB,[2]; CMIT and ethylparaben,1.00
same,Qb (ethylparaben): concentration of ethylparaben indicating an end point,[2]; [3],1500 ppm
"O=CCCCC=O [GDA, glutardialdehyde]",Synergy index Qa/QA + Qb/QB,[2]; CMIT and GDA,1.00
same,Qb (GDA): concentration of GDA indicating an end point,[2]; [3],500 ppm
"Cn1sc(Cl)cc1=O [CMIT, 5-chloro-2-methylisothiazolin-3-one]",Synergy index Qa/QA + Qb/QB,[2]; CMIT and BAC,1.00
same,Synergy index Qa/QA + Qb/QB,[2]; CMIT and BBIT,1.00
same,Synergy index Qa/QA + Qb/QB,[2]; CMIT and DDAC,1.00
same,Synergy index Qa/QA + Qb/QB,[2]; CMIT and EDDS,1.00
same,Synergy index Qa/QA + Qb/QB,[2]; CMIT and GDA,1.00
same,Synergy index Qa/QA + Qb/QB,[2]; CMIT and HCHO,1.00
same,Synergy index Qa/QA + Qb/QB,[2]; CMIT and HEDP,1.00
same,Synergy index Qa/QA + Qb/QB,[2]; CMIT and IPBC,1.00
same,Synergy index Qa/QA + Qb/QB,[2]; CMIT and OIT,1.00
same,Synergy index Qa/QA + Qb/QB,[2]; CMIT and PASP Na salt,1.00
same,Synergy index Qa/QA + Qb/QB,[2]; CMIT and ethylparaben,1.00
same,Synergy index Qa/QA + Qb/QB,[2]; CMIT and methylparaben,1.00
same,Synergy index Qa/QA + Qb/QB,[2]; CMIT and phenetyl alcohol,1.00
same,Qa (CMIT): concentration of CMIT indicating an end point,[2]; in the mixture with BAC,2 ppm
same,Qa (CIT): concentration of CMIT indicating an end point,[2]; in the mixture with BBIT,2 ppm
same,Qa (CMIT): concentration of CMIT indicating an end point,[2]; in the mixture with DDAC,2 ppm
same,Qa (CMIT): concentration of CMIT indicating an end point,[2]; in the mixture with EDDS,2 ppm
same,Qa (CMIT): concentration of CMIT indicating an end point,[2]; in the mixture with GDA,2 ppm
same,Qa (CMIT): concentration of CMIT indicating an end point,[2]; in the mixture with HCHO,2 ppm
same,Qa (CMIT): concentration of CMIT indicating an end point,[2]; in the mixture with HEDP,2 ppm
same,Qa (CIT): concentration of CMIT indicating an end point,[2]; in the mixture with IPBC,2 ppm
same,Qa (CIT): concentration of CMIT indicating an end point,[2]; in the mixture with OIT,2 ppm
same,Qa (CMIT): concentration of CMIT indicating an end point,[2]; in the mixture with PASP Na salt,2 ppm
same,Qa (CMIT): concentration of CMIT indicating an end point,[2]; in the mixture with ethylparaben,2 ppm
same,Qa (CMIT): concentration of CMIT indicating an end point,[2]; in the mixture with methylparaben,2 ppm
same,Qa (CMIT): concentration of CMIT indicating an end point,[2]; in the mixture with phenetyl alcohol,2 ppm
same,Synergy index Qa/QA + Qb/QB,[1]; CMIT and BBIT,1.00
same,Synergy index Qa/QA + Qb/QB,[1]; CMIT and IPBC,1.00
same,Synergy index Qa/QA + Qb/QB,[1]; CMIT and OIT,1.00
same,Synergy index Qa/QA + Qb/QB,[1]; CMIT and dehydracetic acid,1.00
same,Synergy index Qa/QA + Qb/QB,[1]; CMIT and salicylic acid,1.00
same,Synergy index Qa/QA + Qb/QB,[1]; CMIT and sorbic acid,1.00
same,Qa (CMIT),[1]; in the mixture with BBIT,2.50 ppm
same,Qa (CMIT),[1]; in the mixture with IPBC,2.50 ppm
same,Qa (CMIT),[1]; in the mixture with OIT,2.50 ppm
same,Qa (CMIT): concentration of CMIT indicating an end point,[1]; in the mixture with benzoic acid,2.5 ppm
same,Qa (CMIT): concentration of CMIT indicating an end point,[1]; in the mixture with dehydracetic acid,2.5 ppm
same,Qa (CMIT): concentration of CMIT indicating an end point,[1]; in the mixture with salicylic acid,2.5 ppm
same,Qa (CMIT): concentration of CMIT indicating an end point,[1]; in the mixture with sorbic acid,2.5 ppm
"CCCCCCCCn1sccc1=O [OIT, octylisothiazolinone]",Synergy index Qa/QA + Qb/QB,[2]; CMIT and OIT,1.00
same,Qb (OIT): concentration of OIT indicating an end point,[2]; [3],300 ppm
same,Synergy index Qa/QA + Qb/QB,[1]; CMIT and OIT,1.00
same,Qb (OIT): concentration of OIT indicating an end point,[1]; [3],2.00 ppm
OCCc1ccccc1 [phenetyl alcohol],Synergy index Qa/QA + Qb/QB,[2]; CMIT and phenetyl alcohol,1.00
same,Qb (phenetyl alcohol): concentration of phenetyl alcohol indicating an end point,[2]; [3],3000 ppm
benzalkonium chloride [BAC],Synergy index Qa/QA + Qb/QB,[2]; CMIT and BAC,1.00
same,Qb (BAC): concentration of BAC indicating an end point,[2]; [3],30 ppm
O=C(O)c1ccccc1O [salicylic acid],Synergy index Qa/QA + Qb/QB,[1]; CMIT and salicylic acid,1.00
same,Qb (salicylic acid): concentration of salicylic acid indicating an end point,[1]; [3],3000 ppm
"CCCCNC(=O)OCC#CI [IPBC, 3-iodo-2-propynyl butylcarbamate]",Synergy index Qa/QA + Qb/QB,[2]; CMIT and IPBC,1.00
same,Qb (IPBC): concentration of IPBC indicating an end point,[2]; [3],1000 ppm
same,Synergy index Qa/QA + Qb/QB,[1]; CMIT and IPBC,1.00
same,Qb (IPBC): concentration of IPBC indicating an end point,[1]; [3],2.50 ppm
C/C=C/C=C/C(=O)O [sorbic acid],Synergy index Qa/QA + Qb/QB,[1]; CMIT and sorbic acid,1.00
same,Qb (sorbic acid): concentration of sorbic acid indicating an end point,[1]; [3],750 ppm
O=C(O)c1ccccc1 [benzoic acid],Qb (benzoic acid): concentration of benzoic acid indicating an end point,[1]; [3],2500 ppm
